This is an account of results in PubChem BioAssay (NCI).

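Values below derive from 48-hour exposures of cells grown in 96-well plates, with endpoints linearly interpolated between the two concentrations bracketing the appropriate inhibition level. GI50 = concentration required for 50% inhibition of growth. The concentration for full growth arrest is given as TGI.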 Bounds are passed on as bounds.

Some test systems named below: M14 melanoma; NCI-H23 lung; RPMI-8226 leukemia; HL-60(TB) leukemia; SW-620 colon; SNB-19 CNS; TK-10 renal; PC-3 prostate; A498 renal; IGROV1 ovarian.
Common to all, as to experiment: DTP human tumour cell line panel, 48 h

One may read the GI50 as the concentration at which growth is held to half of that of the control. Usually TGI stands for the concentration giving total growth inhibition. Read a low TGI as more potent growth arrest. For the compound `Cc1c(C)c2c(c(C)c1NC(=O)/C=C\C(=O)O)CCC(C)(CCCC(C)CCCC(C)CCCC(C)C)O2` (stereo unspecified), the GI50 with M14 melanoma was 1.37 µM; in the test on NCI-H23 lung, 2.1 µM; with RPMI-8226 leukemia, 2.17 µM; with HL-60(TB) leukemia it was 1.38 µM; in the test on SW-620 colon, 1.66 µM; in the test with SNB-19 CNS it was 1.94 µM. Further, the GI50 with TK-10 renal was 1.84 µM; in the test with PC-3 prostate it was 1.38 µM; in the test with A498 renal, 1.38 µM; in the test on IGROV1 ovarian it was 1.94 µM. Besides, the total growth inhibition concentration (TGI) came out at 2.75 µM in the test with M14 melanoma; 4.52 µM in the test on NCI-H23 lung; 13.8 µM in the test on RPMI-8226 leukemia; 6.82 µM with HL-60(TB) leukemia; 3.25 µM in the test with SW-620 colon; 3.47 µM in the test with SNB-19 CNS. The concentration for total growth inhibition (TGI) is 3.39 µM with TK-10 renal, 2.91 µM with PC-3 prostate, 2.7 µM with A498 renal and 4.88 µM in the test with IGROV1 ovarian.
For `O=C(COc1ccc(/C=C2\Oc3ccccc3C2=O)cc1)Nc1nccs1`, the GI50 with NCI-H23 lung was 49.8 µM; in the test on RPMI-8226 leukemia, 4.12 µM; in the test with SW-620 colon, above 100 µM; in the test on SNB-19 CNS, above 100 µM; with TK-10 renal, 85.1 µM; in the test on PC-3 prostate it was 38.1 µM. The GI50 in the test with A498 renal is 54.1 µM. For the same compound, the concentration for total growth inhibition (TGI) in the test with NCI-H23 lung, in the test on RPMI-8226 leukemia, in the test with SW-620 colon, with SNB-19 CNS, in the test with TK-10 renal and in the test on PC-3 prostate was above 100 µM each time. The compound further returned a TGI with A498 renal above 100 µM.
For `N=Nc1c(OC(=O)Nc2ccccc2)[nH]c2ccccc12`, the TGI is 37.9 µM with M14 melanoma; 33.2 µM in the test on NCI-H23 lung; 32.1 µM in the test on RPMI-8226 leukemia; above 100 µM in the test on SW-620 colon; 63 µM with SNB-19 CNS; 60.8 µM in the test with TK-10 renal. For the same compound, the concentration for total growth inhibition (TGI) in the test on PC-3 prostate is 34.4 µM; in the test with A498 renal, 34.7 µM; with IGROV1 ovarian it was 42.2 µM.
Turning to `O=C(/C=C1\C(=O)N(Cc2ccc([N+](=O)[O-])cc2)c2ccccc21)c1ccc(OCCN2CCCCC2)cc1`, the GI50 in the test on M14 melanoma is 1.59 µM; in the test on NCI-H23 lung, 1.47 µM; with RPMI-8226 leukemia, 1.35 µM; in the test with SNB-19 CNS it was 1.56 µM; in the test with TK-10 renal, 1.43 µM; with PC-3 prostate, 1.74 µM. For the same compound, the GI50 with A498 renal was 4.09 µM. The concentration for total growth inhibition (TGI) in the test with M14 melanoma turned out to be 3.11 µM; with NCI-H23 lung, 2.97 µM; in the test on RPMI-8226 leukemia it was 4.13 µM; in the test on SNB-19 CNS, 2.92 µM; in the test with TK-10 renal it was 2.74 µM; in the test on PC-3 prostate it was 3.52 µM. The TGI in the test on A498 renal was 18 µM.
Consider `O=C(Cn1c(=O)c(-c2ccccc2)nc2ccccc21)c1ccc(Cl)cc1`, for which the GI50 is above 100 µM with M14 melanoma; above 100 µM in the test with NCI-H23 lung; 57.8 µM with RPMI-8226 leukemia; above 100 µM with SW-620 colon; 42.2 µM with SNB-19 CNS; 25.7 µM in the test on TK-10 renal. Also, the GI50 was 34.6 µM in the test with PC-3 prostate and 63.3 µM with IGROV1 ovarian. The TGI in the test on M14 melanoma, in the test on NCI-H23 lung, with RPMI-8226 leukemia, in the test with SW-620 colon, with SNB-19 CNS and with TK-10 renal was above 100 µM throughout. Besides, the concentration for total growth inhibition (TGI) with PC-3 prostate and with IGROV1 ovarian was above 100 µM in each case.
Consider `COc1ccc(C(C#N)NC23CC4CC(CC(C4)C2)C3)cc1OC` (stereo unspecified), for which the TGI in the test with M14 melanoma, with NCI-H23 lung, in the test on RPMI-8226 leukemia, in the test on HL-60(TB) leukemia, in the test with SW-620 colon and in the test on SNB-19 CNS was above 100 µM each time. For the same compound, the TGI in the test with TK-10 renal, in the test with PC-3 prostate and in the test with IGROV1 ovarian was above 100 µM in each case.
Regarding `CN1CCN(CCCOc2cccc3nc(Nc4ccc(Cl)c(F)c4)ccc23)CC1`, the GI50 was 1.73 µM in the test on M14 melanoma; 1.75 µM with NCI-H23 lung; 2.55 µM with RPMI-8226 leukemia; 1.97 µM with SW-620 colon; 1.86 µM in the test with SNB-19 CNS; 1.81 µM with TK-10 renal. Further, the GI50 was 1.76 µM in the test with PC-3 prostate, 2.39 µM in the test with A498 renal and 1.95 µM with IGROV1 ovarian. In addition, the total growth inhibition concentration (TGI) in the test on M14 melanoma came out at 3.37 µM; with NCI-H23 lung it was 3.43 µM; in the test with RPMI-8226 leukemia it was 5.88 µM; with SW-620 colon, 3.71 µM; in the test on SNB-19 CNS, 3.53 µM; with TK-10 renal, 3.28 µM. In addition, the total growth inhibition concentration (TGI) in the test with PC-3 prostate was 3.41 µM; with A498 renal, 8.28 µM; in the test on IGROV1 ovarian, 4.31 µM.
Take `CC(C)(C)[Si](C)(C)OCC1CCC(n2cnc3c(=O)[nH]cnc32)O1` (stereo unspecified): the TGI in the test with M14 melanoma, with NCI-H23 lung, with RPMI-8226 leukemia, with HL-60(TB) leukemia, in the test with SW-620 colon and in the test with SNB-19 CNS was above 100 µM each time. In addition, the TGI in the test on TK-10 renal, with PC-3 prostate and with IGROV1 ovarian was above 100 µM in each case.
In the case of `O=c1oc2cc(N=Cc3ccccc3Cl)ccc2c2ccccc12`, the TGI in the test with M14 melanoma, with NCI-H23 lung, with RPMI-8226 leukemia, in the test with HL-60(TB) leukemia, in the test with SW-620 colon and in the test with SNB-19 CNS was above 100 µM throughout. The TGI in the test on PC-3 prostate, in the test on A498 renal and with IGROV1 ovarian was above 100 µM throughout.
As for `COc1cc(-c2nn(-c3ccc(NC(=O)Nc4ccc(Cl)c(Cl)c4)cc3)cc2-c2ccncc2)ccc1Cl`, the GI50 with M14 melanoma is 2.56 µM; with NCI-H23 lung, 3.26 µM; with HL-60(TB) leukemia, 3.55 µM; in the test on SW-620 colon, 4.3 µM; with SNB-19 CNS, 5.29 µM; in the test with TK-10 renal, 6.5 µM. Also, the GI50 was 2.89 µM in the test on PC-3 prostate, 2 µM in the test on A498 renal and 4.88 µM in the test with IGROV1 ovarian. The TGI is 6.87 µM in the test on M14 melanoma; 32.3 µM with NCI-H23 lung; above 100 µM in the test with HL-60(TB) leukemia; 19.4 µM in the test with SW-620 colon; above 100 µM in the test on SNB-19 CNS; above 100 µM in the test with TK-10 renal. The TGI with PC-3 prostate is above 100 µM; in the test with A498 renal, 8.27 µM; in the test with IGROV1 ovarian, above 100 µM.
